#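 Results reflect a 48-hour exposure of cells in 96-well plates to compound at five concentrations. Here, GI50 denotes the concentration required for 50% inhibition of growth. At the TGI there is no net growth.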 *1 amine or outer side, *2 acyl side, *3 side chain or, on linkers, in order; H or OH if unused. Where a SMILES comes first, the peptide text is derived from it. [ ]: non-standard residue; d: D form. The star is where a group is joined. Phe(4-NO2) = N[CH](Cc1ccc([N+](=O)[O-])cc1)C(=O)O; X32 = C[C@H](N[*:1])C(=O)C(C)(C)C(=O)[*:2]; Hmpa(2S,3S) = CC[C@H](C)[C@H](O)C(=O)O; NMeY = CN[C@@H](Cc1ccc(O)cc1)C(=O)O; NMeL = CN[C@@H](CC(C)C)C(=O)O; NMeV = CN[C@H](C(=O)O)C(C)C; Boc = CC(C)(C)OC(=O)*; βAla = NCCC(=O)O
# Key:
# Experiment in all cases: DTP human tumour cell line panel, 48 h
# [1] = tested on: BT-549 breast
# [2] = tested on: DU-145 prostate
# [3] = tested on: HCT-116 colon
# [4] = tested on: HOP-92 NSCLC
# [5] = tested on: HS 578T breast
# [6] = tested on: K-562 leukemia
# [7] = tested on: KM12 colon
# [8] = tested on: NCI-H460 lung
# [9] = tested on: SF-295 CNS
# [10] = tested on: SK-OV-3 ovarian
# [11] = tested on: TK-10 renal
# [12] = tested on: UO-31 renal
Structure (SMILES),TGI [1] [µM],TGI [2] [µM],TGI [3] [µM],TGI [4] [µM],TGI [5] [µM],TGI [6] [µM],TGI [7] [µM],TGI [8] [µM],TGI [9] [µM],TGI [10] [µM],TGI [11] [µM],TGI [12] [µM],GI50 [3] [µM],GI50 [4] [µM],GI50 [5] [µM],GI50 [6] [µM],GI50 [7] [µM],GI50 [8] [µM],GI50 [9] [µM]
C/C(=N\NC(=S)NCCCNC(=S)N/N=C(\C)c1ccccn1)c1ccccn1,21.9,33.9,24,> 66.2,> 100,> 100,> 76.1,10.1,46.1,> 35.1,24.2,> 54.1,,,,,,,
COC(=O)C(CCSC)NC(=O)Cc1ccc(C(=O)c2ccccc2)cc1 (centres undefined),> 100,> 100,> 100,> 100,> 100,> 100,> 100,> 100,> 100,> 100,,> 100,,,,,,,
Nn1c(Cc2ccc([N+](=O)[O-])cc2)n[nH]c1=O,> 100,> 100,> 100,> 100,> 100,> 100,> 100,> 100,> 100,> 100,,> 100,,,,,,,
O=c1/c(=C/c2ccc(-c3ccc(Cl)cc3Cl)o2)sc2n1[C@@H](c1ccc(Cl)cc1)C=C(c1cc(F)c(Cl)cc1Cl)N=2,> 100,> 100,> 100,61.7,> 100,> 100,> 100,> 100,> 100,61.7,> 100,> 100,,,,,,,
CCOC(=O)C(SCCO)C(C(=O)OCC)n1ccc(=O)[nH]c1=O (centres undefined),> 100,> 100,> 57.4,69.1,> 100,36.1,> 87.4,> 100,> 100,> 100,> 100,> 100,,,,,,,
CCCCCCCCCCNC(=O)CCC(NC(=O)c1ccc(N(C)Cc2cnc3nc(N)nc(N)c3n2)cc1)C(=O)NCCCCCCCCCC (centres undefined),26.3,> 70.2,14,27.1,20.8,> 32.2,16.2,13.1,> 100,65.3,> 92.7,> 100,,,,,,,
C=C1CCC([N+](=O)[O-])[C@](C)(N=O)CC[C@@H]2C1CC2(C)C (some centres undefined),37.1,> 100,32.1,44.9,39,79.1,65.5,39.6,37.6,> 100,76.1,31.7,,,,,,,
C=CCc1cccc2cc(C(=O)Nc3ccccn3)c(=N)oc12,> 100,> 100,> 100,> 100,> 100,> 100,> 100,> 100,,> 100,,,,,,,,,
CCOC(=O)c1c(N2CCOCC2)[nH]c(=O)c(C(c2ccco2)c2c(O)c(C(=O)OCC)c(N3CCOCC3)[nH]c2=O)c1O,> 100,> 100,> 100,> 100,> 100,> 100,> 100,> 100,> 100,> 100,> 100,> 100,,,,,,,
Nc1onc2c1Cc1c(noc1N)-c1ccccc1-2,50.4,> 100,> 100,94.6,83.8,> 100,> 100,> 100,> 100,> 100,> 100,> 100,,,,,,,
CCC(=O)Nc1ccc(N2C(=O)C(Cl)C2c2ccc(SC)cc2)cc1 (centres undefined),> 100,> 100,> 100,> 100,> 100,> 100,> 100,> 100,> 100,> 100,,> 100,,,,,,,
Cc1ccc(NC(=O)c2cc(S(=O)(=O)Nc3nc4ncccc4[nH]3)c(SSc3cc(Cl)c(C(=O)Nc4ccc(C)cc4)cc3S(=O)(=O)Nc3nc4ncccc4[nH]3)cc2Cl)cc1,> 100,> 100,> 100,> 100,> 100,> 100,> 100,> 100,> 100,> 100,> 100,> 100,,,,,,,
N#Cc1cnc(N)nc1NCC1(CO)CC(CCc2ccccc2)C1 (centres undefined),> 100,> 100,> 100,> 100,> 100,> 100,> 100,> 100,> 100,> 100,> 100,> 100,,,,,,,
COc1ccccc1C(=O)c1c(NCc2ccccc2)c(=O)c1=O,> 100,> 100,> 100,> 100,> 100,> 100,> 100,> 100,> 100,> 100,> 100,> 100,,,,,,,
CC(=O)Nc1ccc(C2SCc3nc4ccccc4n32)cc1 (centres undefined),> 74.6,> 100,> 100,> 100,> 95.5,> 100,> 100,> 100,> 100,> 100,> 100,> 100,,,,,,,
CC(=O)O[C@H]1[C@H](OC(=O)CC(C)(O)CC(=O)O)C[C@]2(C)C3=C(CCC2C1(C)C)[C@]1(C)CC[C@H]([C@H]2CC[C@H](C(C)(C)O)OC2O)[C@@]1(C)[C@@H](O)C3 (some centres undefined),29,64.8,44.7,31.1,41.9,76.5,38.6,28.6,33.9,30.6,63.4,25.8,,,,,,,
CO/N=C(\C)c1cccc(Nc2c3ccccc3nc3occc23)c1,48.8,44.4,21.2,43.2,41,> 100,39.5,23.7,18.4,36.4,48.8,31.5,,,,,,,

Structure (SMILES),TGI [1] [µM],TGI [2] [µM],TGI [3] [µM],TGI [4] [µM],TGI [5] [µM],TGI [6] [µM],TGI [7] [µM],TGI [8] [µM],TGI [9] [µM],TGI [10] [µM],TGI [11] [µM],TGI [12] [µM],GI50 [3] [µM],GI50 [4] [µM],GI50 [5] [µM],GI50 [6] [µM],GI50 [7] [µM],GI50 [8] [µM],GI50 [9] [µM]
CC1=C(C(=O)Nc2ccccc2)C2(CCCCC2)C(C#N)=C(SCC(=O)Nc2ccc(Br)cc2)N1,33.4,> 100,8.28,8.44,44.9,23,> 26,11.4,28.9,44.5,> 45.4,2.76,,,,,,,
CCCCn1c2c(n(CCCC)c1=S)-c1c(n(CCCC)c(=S)n1CCCC)SSc1c(n(CCCC)c(=S)n1CCCC)-c1c(n(CCCC)c(=S)n1CCCC)SSc1c(n(CCCC)c(=S)n1CCCC)-c1c(n(CCCC)c(=S)n1CCCC)SS2,> 50,> 50,> 27.7,3.53,> 50,> 50,> 50,> 50,> 37,> 50,> 50,16.5,,,,,,,
COC(=O)C1(C)C=CC(=O)C2(C)C1C(O)C1OC3CC(c4ccoc4)C(C)=C3C1(C)C2CC(=O)O (centres undefined),> 100,> 100,> 100,> 100,> 100,,> 100,> 100,> 100,> 100,> 100,> 100,,,,,,,
CCCCCCCCCCCCC(O)[C@H]1CC[C@H](C(O)CCCCCC(=O)CCCCC2CC(C(C)=O)C(=O)O2)O1 (some centres undefined),59.5,> 100,36,31.7,51.2,> 63.6,24.3,22.5,37.6,28,> 68.6,26.9,7.23,3.23,4.42,1.91,4.2,9.67,2.7
CC(C)(C)c1cc(O)ccc1O,> 100,23.4,> 72.9,> 79.2,> 100,> 100,> 100,> 21.6,> 100,> 100,22.2,> 72.8,,,,,,,
O=C1C(c2c(O)[nH]c3ccc(Br)cc23)=Nc2ccccc21,41,27.2,6.47,34.9,54.6,> 100,50.5,44.6,51,40.9,27.8,12.3,,,,,,,
OCCNCNc1nc(NCNCCO)nc(N(CNCCO)CNCCO)n1,46,44.3,41.5,51.1,> 78.8,50.3,> 59.5,59.4,> 61.6,> 85.9,72.1,> 73.9,,,,,,,
CC(C)NC(=O)CN1CCN(c2c(O)c3c(c(O)c2Cl)C(=O)C=CC3=O)CC1,2.85,7.31,2.61,4.16,6.42,> 100,18.4,22.1,19.7,24.3,4.27,2.64,,,,,,,
C(=C\c1ccco1)/c1cccc(/C=C/c2ccco2)n1,> 50,> 50,> 50,> 50,> 50,> 50,> 50,> 50,> 50,> 50,> 50,> 50,,,,,,,
CC(=O)OCC1OC(n2c(-c3ccc(C)cc3)cc(-c3ccccc3)c(C#N)c2=S)C(OC(C)=O)C(OC(C)=O)C1OC(C)=O (centres undefined),> 100,> 100,> 100,> 100,> 100,> 100,> 100,> 100,> 100,> 100,> 100,> 100,,,,,,,
CNC(=O)CCC(NC(=O)OC(C)(C)C)C(=O)NC(Cc1ccc([N+](=O)[O-])cc1)C(=O)NCC(=O)NC (centres undefined) (Boc-Glu(NHMe)-[Phe(4-NO2)]-Gly-NHMe; configuration not given here),> 100,> 100,> 100,> 100,> 100,> 100,> 100,> 100,> 100,> 100,> 100,> 100,,,,,,,
N[C@H]1CCCC[C@@H]1N1C(=O)c2ccccc2C1(O)c1ccc(Cl)cc1 (some centres undefined),28.8,25.9,21.9,24.9,54.4,13.2,9.75,25.2,30.9,29.8,26,24.2,,,,,,,
CCC(C#N)NCc1cccc(CNC(C#N)CC)c1 (centres undefined),> 100,> 100,> 100,> 100,> 100,> 100,> 100,> 100,33.7,32.3,> 100,> 100,,,,,,,
CCOC(=O)CCC(NC(=O)c1ccc(OCc2ccc3nc(-c4ccccc4)c(Cl)nc3c2)cc1)C(=O)OCC (centres undefined),> 31.6,> 31.6,> 31.6,25.5,> 31.6,> 100,> 31.6,> 31.6,> 31.6,> 100,> 31.6,> 31.6,,,,,,,
"CC[C@H](C)[C@@H]1OC(=O)CCNC(=O)[C@@H](C)NC(=O)C(C)(C)C(=O)[C@H](C)NC(=O)[C@H](Cc2ccc(OC)cc2)N(C)C(=O)[C@H](C(C)C)N(C)C(=O)CNC(=O)[C@H](CC(C)C)N(C)C(=O)CNC1=O (cyclo(G[NMeL]G[NMeV][NMeY](Me)[X32][dA][βAla][Hmpa(2S,3S)]))",13.6,> 39.2,> 27.8,4.61,20.8,> 24.5,,> 50,24.3,4.11,8,16,,,,,,,
CC(=O)Nc1c(C)cc2c(nc3n2CCC3O)c1[N+](=O)[O-] (centres undefined),> 100,> 100,> 100,> 100,> 100,> 100,> 100,> 100,> 100,> 100,,> 100,,,,,,,

# Source: PubChem BioAssay (NCI)
